The values below come from US5744468A (Lin; Tong-Ho, priority 1996, dated 1998).

Read-outs that look alike come from different tables or passages of the source.

The subject of test [1] is intraocular pressure (IOP) in rabbits. The note with it: 50 μl.
Description: New Zealand albino rabbits of either sex were used in the study. A 20% hypertonic saline solution was infused at the speed of 1 ml per min for 10 minutes through the marginal ear vein with an infusion pump.
Then the IOP of both eyes were measured with a Tono-Pen XL Tonometer (Mentor, Norwell, Mass.) at 30 minute and 10 minute intervals before the experiment. At the time of commencement, as well as at 10, 20, 40, 60, and 80 rain intervals measurements were taken, Then measurements were repeated at every 30 minute intervals.
For test [2], the system named is dopamine D3 receptor mRNA. The note with it: daily doses clozapine 30 mg/kg, sulpiride 100 mg/kg; male Wistar rats; long term; cited from earlier work.

Consider `CCN1CCCC1CNC(=O)c1cc(S(N)(=O)=O)ccc1OC` (stereo not drawn) [Sulpiride], for which the “effect on IOP recovery” value is listed as “didn't show a significant ability in decreasing lOP” in test [1] (0.5% drop solution, instilled in eye) and “able to decrease the intraocular pressure (IOP)” in test [1] (20% drop solution, listed as sulpiride). The “mRNA levels in the dopamine D3 receptor” value in test [2] is recorded as “large increase”.
